Assay results published in ChEMBL document CHEMBL1126746, “Sulfonylmethanesulfonamide inhibitors of carbonic anhydrase” (J Med Chem, 1993).

Experiments:
Carbonic anhydrase = assay type: protein assay, Canis lupus familiaris
Description: In vitro inhibition of crude dog red blood cell carbonic anhydrase

Carbonic anhydrase 2 = Carbonic anhydrase 2 (Homo sapiens, UniProt P00918)
Description: In vitro inhibition of purified human erythrocyte carbonic anhydrase II

[1] = system: Carbonic anhydrase (Oryctolagus cuniculus); assay: Inhibition of carbonic anhydrase activity in a homogenate of rabbit iris-ciliary body at a dose of 0.05 mg (ex vivo)
[2] = system: Carbonic anhydrase (Oryctolagus cuniculus); assay: Ex vivo inhibition of carbonic anhydrase in homogenate of rabbit iris-ciliary body; expressed as volume/minute of 0.025 N NaOH required to maintain pH of assay mixture at 0.25 mg
[3] = system: Carbonic anhydrase (Oryctolagus cuniculus); assay: Inhibition of carbonic anhydrase activity in a homogenate of rabbit iris-ciliary body at a dose of 0.25 mg (ex vivo)
[4] = Equilibrium dissociation constant of CA complex for enantiomer 1 of compound; assay type: ADME
[5] = system: Carbonic anhydrase (Oryctolagus cuniculus); assay: Ex vivo inhibition of carbonic anhydrase in homogenate of rabbit iris-ciliary body; expressed as volume/minute of 0.025 N NaOH required to maintain pH of assay mixture at 0.05 mg
[6] = Equilibrium dissociation constant of CA complex for enantiomer 2 of compound; assay type: ADME
[7] = Equilibrium dissociation constant was determined; assay type: ADME

Description for physchem: Acid dissociation constant was determined

Row | IC50 (Carbonic anhydrase 2) [µM] | pKa (physchem) | also measured | Structure (SMILES)
1 | – | – | IC50 (Carbonic anhydrase): 1000 µM | CCS(N)(=O)=O [ETHANESULFONIC ACID AMIDE]
2 | 2 | 9.5 | – | NS(=O)(=O)CSCCc1ccccc1
3 | 0.003 | 7.5 | inhibition [1]: 71%; CA activity ((ml of NaOH) min-1) [2]: 0.043; inhibition [3]: 91%; Kd [4]: 0.00357 µM; CA activity ((ml of NaOH) min-1) [5]: 0.147; Kd [6]: 0.00064 µM | CCCCCCCCS(=O)(=O)C(F)S(N)(=O)=O (stereo not drawn)
4 | 0.1 | 8.4 | – | NS(=O)(=O)CS(=O)(=O)CCc1ccccc1
5 | 2.5 | 8.9 | – | CCCCCCCCS(=O)(=O)C(C)S(N)(=O)=O (stereo not drawn)
6 | 1.2 | 9.4 | – | NS(=O)(=O)CSCCCc1ccccc1
7 | 1.3 | – | – | COCCOCCOCS(=O)(=O)CS(N)(=O)=O
8 | 0.2 | – | – | CCCCCCCCS(=O)(=O)C(Cl)(Cl)S(N)(=O)=O
9 | 0.48 | – | – | CCCCCCCCSCS(N)(=O)=O
10 | 0.022 | 9.4 | – | CCCCCCCCS(=O)(=O)CS(N)(=O)=O
11 | 2.9 | 10.1 | – | NS(=O)(=O)CSc1ccc(O)cc1
12 | 0.19 | 8.4 | – | NS(=O)(=O)CS(=O)(=O)CCCc1ccccc1
13 | 0.8 | 8.8 | – | COc1ccc2c(c1)S(=O)(=O)C(S(N)(=O)=O)C2 (stereo not drawn)
14 | 0.4 | 9.1 | – | NS(=O)(=O)CS(=O)(=O)c1ccc(O)cc1
15 | 0.012 | 7.7 | Kd [7]: 0.017 µM | CCCCCCCCS(=O)(=O)C(Cl)S(N)(=O)=O (stereo not drawn)
